The results in this text go back to ChEMBL document CHEMBL6127101, “Wee1 inhibitor optimization through deep-learning-driven decision making” (Eur J Med Chem, 2024).

The target in one assay is Wee1-like protein kinase (Homo sapiens, UniProt P30291). In words: Inhibition of Wee-1 (unknown origin) using Poly-Lys Tyr as substrate incubated for 60 mins in presence of ATP by ADP-Glo Kinase assay. Background: In ADP-Glo the light output rises with the ADP produced.
A further assay has as its system NCI-H446. In words: Inhibition of cell viability of human NCI-H446 cells incubated for 72 hrs by Cell Titer-Glo assay. The settings on record: NCI-H446, 72 h. For orientation: In ATP-based viability assays light output follows the ATP content of the culture.
For the next assay, the system named is A-427. In words: Inhibition of cell viability of human A-427 cells incubated for 72 hrs by Cell Titer-Glo assay. It counts as functional, cell-based. The settings on record: A-427, 72 h.
The next assay has as its system OVCAR-3. Put plainly: Inhibition of cell viability of human OVCAR-3 cells incubated for 72 hrs by Cell Titer-Glo assay. As to conditions: OVCAR-3, 72 h. It counts as functional, cell-based.
Assay [1] concerns C-33-A. Put plainly: Inhibition of cell viability of human C-33-A cells incubated for 72 hrs by Cell Titer-Glo assay. It counts as functional, cell-based.
A further assay has as its system WiDr. Put plainly: Inhibition of cell viability of human WiDr cells incubated for 72 hrs by Cell Titer-Glo assay. It counts as functional, cell-based.
In assay [2] the test system is C-33-A. Put plainly: Inhibition of cell viability of human C-33-A cells incubated for 72 hrs by Cell Titer-Glo assay relative to control. It counts as functional.

Bounds are passed on as bounds.

Chain of Wee1-like protein kinase (P30291 whole entry): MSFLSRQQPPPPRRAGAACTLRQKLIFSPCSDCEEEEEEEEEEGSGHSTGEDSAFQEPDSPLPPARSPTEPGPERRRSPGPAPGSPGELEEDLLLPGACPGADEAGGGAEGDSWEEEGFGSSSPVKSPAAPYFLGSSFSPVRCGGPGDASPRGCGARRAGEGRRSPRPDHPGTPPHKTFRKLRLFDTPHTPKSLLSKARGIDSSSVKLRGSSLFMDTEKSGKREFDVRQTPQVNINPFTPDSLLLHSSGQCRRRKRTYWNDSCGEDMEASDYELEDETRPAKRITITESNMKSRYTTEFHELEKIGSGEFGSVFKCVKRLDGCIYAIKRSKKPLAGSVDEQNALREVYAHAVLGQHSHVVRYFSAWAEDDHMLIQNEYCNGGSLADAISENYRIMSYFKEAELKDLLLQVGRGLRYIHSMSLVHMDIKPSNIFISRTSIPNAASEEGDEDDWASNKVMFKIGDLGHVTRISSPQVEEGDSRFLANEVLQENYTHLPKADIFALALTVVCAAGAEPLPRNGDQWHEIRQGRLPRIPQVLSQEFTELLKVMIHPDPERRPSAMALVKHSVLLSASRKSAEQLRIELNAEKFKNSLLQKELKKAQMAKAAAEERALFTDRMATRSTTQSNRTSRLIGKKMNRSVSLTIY

As a reminder, the IC50 is the midpoint of a concentration-inhibition curve. For the compound `CC1(N)CCN(c2ccc(Nc3ncc(-c4cnco4)c(-c4cc(N5CC[C@H](N)C5)ns4)n3)cc2)CC1`, the IC50 is 47.1 nM on Wee1-like protein kinase and > 10000 nM in the assay with NCI-H446.

Regarding `CN1CCN(c2ccc(Nc3ncc(-c4cncs4)c(-c4cc5ccccc5o4)n3)cc2)CC1`, the IC50 at Wee1-like protein kinase is 2.3 nM; in the assay on NCI-H446, 1160 nM; in the assay with A-427, 463 nM; in the assay with OVCAR-3, 736 nM; with C-33-A [1], 458 nM; with WiDr it was 855 nM.

For the compound `CC1(N)CCN(c2ccc(Nc3ncc(-c4cnco4)c(-c4cc5ccc(CO)cc5o4)n3)cc2)CC1`, on Wee1-like protein kinase, the IC50 was found to be 13.5 nM.

Regarding `COc1cc(Nc2ncc(-c3cnco3)c(-c3cnc(N4CC[C@H](O)C4)s3)n2)ccc1N1CCN(C)CC1`, the 50% inhibitory concentration (IC50) came out at 22.4 nM at Wee1-like protein kinase; 1410 nM in the assay on NCI-H446; 589 nM in the assay on A-427; 1840 nM in the assay with OVCAR-3; 410 nM in the assay on C-33-A [1]; 1470 nM in the assay with WiDr.

As for `COc1cc(Nc2ncc(-c3cncs3)c(-c3cnc(N4CC(O)C4)s3)n2)ccc1N1CCN(C)CC1`, the IC50 on Wee1-like protein kinase amounted to 3.7 nM; in the assay on NCI-H446, 313 nM; with A-427 it was 163 nM; with OVCAR-3, 252 nM; with C-33-A [1], 105 nM; in the assay with WiDr, 415 nM.

With `CN1CCN(c2ccc(Nc3ncc(-c4cncs4)c(-c4cnc(N5CC[C@H](O)C5)s4)n3)cc2)CC1`, the IC50 on Wee1-like protein kinase stood at 4.2 nM; in the assay on NCI-H446, 540 nM; in the assay with A-427, 362 nM; with OVCAR-3, 430 nM; in the assay with C-33-A [1], 167 nM; with WiDr, 1110 nM.

On to `COc1cc(Nc2ncc(-c3cncs3)c(-c3cnc(N4CC[C@H](O)C4)s3)n2)ccc1N1CCN(C)CC1`, for which the IC50 at Wee1-like protein kinase was 2 nM; in the assay with NCI-H446, 417 nM; in the assay with A-427, 152 nM; in the assay with OVCAR-3, 229 nM; in the assay with C-33-A [1], 99.5 nM; in the assay with WiDr it was 538 nM.

As to `CN1CCN(c2ccc(Nc3ncc(-c4cncs4)c(-c4cnc(N5CC[C@H](F)C5)s4)n3)cc2)CC1`, the IC50 at Wee1-like protein kinase came to 1.8 nM; in the assay on NCI-H446, 150 nM; in the assay with A-427, 98.2 nM; in the assay on OVCAR-3, 161 nM; with WiDr, 203 nM. Also, in the assay on C-33-A [2], the “inhibition (INH)” value is listed as 43.6%.

Consider `COc1cc(Nc2ncc(-c3cncs3)c(-c3cc4ccccc4o3)n2)ccc1N1CCN(C)CC1`, for which the values for the IC50 at Wee1-like protein kinase and in the assay with NCI-H446 were 1.9 nM and 2040 nM, respectively.

Turning to `CC1(N)CCN(c2ccc(Nc3ncc(-c4cnco4)c(-c4cc5ccccc5o4)n3)cc2)CC1`, the IC50 at Wee1-like protein kinase was determined as 13.5 nM; in the assay with NCI-H446, 709 nM; in the assay on A-427, 1450 nM; in the assay on OVCAR-3, 1500 nM.

Turning to `CC1(N)CCN(c2ccc(Nc3ncc(-c4cnco4)c(-c4cccc(C(C)(C)O)c4)n3)cc2)CC1`, at Wee1-like protein kinase, the IC50 came out at 158 nM.

With `CC1(N)CCN(c2ccc(Nc3ncc(-c4cnco4)c(-c4cnc(N5CC(O)C5)s4)n3)cc2)CC1`, at Wee1-like protein kinase, the IC50 was found to be 33.7 nM.

Take `COc1cc(Nc2ncc(-c3cncs3)c(-c3cnc(N4CC[C@H](F)C4)s3)n2)ccc1N1CCN(C)CC1`: the 50% inhibitory concentration (IC50) on Wee1-like protein kinase turned out to be 2 nM; with NCI-H446 it was 93.9 nM; in the assay on A-427 it was 34.5 nM; in the assay on OVCAR-3, 86.7 nM; in the assay with C-33-A [1], 23.1 nM; in the assay on WiDr, 85 nM.

Regarding `Cc1cc(-c2ccnc(-c3nc(Nc4ccc(N5CCC(C)(N)CC5)cc4)ncc3-c3cnco3)c2)n[nH]1`, at Wee1-like protein kinase, the IC50 worked out at 895 nM.

For the compound `CN1CCN(c2ccc(Nc3ncc(-c4cnco4)c(-c4cnc(N5CC[C@H](F)C5)s4)n3)cc2)CC1`, the IC50 at Wee1-like protein kinase stood at 3.6 nM; with NCI-H446, 562 nM; in the assay on A-427, 211 nM; in the assay with OVCAR-3, 414 nM; in the assay with C-33-A [1], 130 nM; in the assay with WiDr it was 423 nM.

Consider `CC1(N)CCN(c2ccc(Nc3ncc(-c4cnco4)c(-c4snc(N5CCC(N)C5)c4F)n3)cc2)CC1` (stereo not given), for which the IC50 at Wee1-like protein kinase was 47.1 nM.

`CN1CCN(c2ccc(Nc3ncc(-c4cncs4)c(-c4cnc(N5CC(O)C5)s4)n3)cc2)CC1`: the IC50 on Wee1-like protein kinase came out at 3.6 nM; with NCI-H446, 622 nM; with A-427, 369 nM; in the assay on OVCAR-3, 352 nM; in the assay on C-33-A [1] it was 277 nM; in the assay with WiDr, 1020 nM.

As for `COc1cc(Nc2ncc(-c3cnco3)c(-c3cnc(N4CC[C@H](F)C4)s3)n2)ccc1N1CCN(C)CC1`, the IC50 came to 2.5 nM on Wee1-like protein kinase; 300 nM in the assay on NCI-H446; 115 nM in the assay on A-427; 212 nM in the assay on OVCAR-3; 62.6 nM in the assay with C-33-A [1]; 186 nM in the assay on WiDr.

As for `CN1CCN(c2ccc(Nc3ncc(-c4cnco4)c(-c4cnc(N5CC[C@H](O)C5)s4)n3)cc2)CC1`, the IC50 on Wee1-like protein kinase was found to be 20.9 nM; in the assay on NCI-H446, 1660 nM; in the assay on A-427, 565 nM; in the assay with OVCAR-3 it was 2110 nM; in the assay with C-33-A [1] it was 527 nM; with WiDr, 2170 nM.

For `C=CCn1c(=O)c2cnc(Nc3ccc(N4CCN(C)CC4)cc3)nc2n1-c1ccc2c(n1)[C@@](O)(CC)CC2` [AZENOSERTIB], the IC50 at Wee1-like protein kinase is 1.3 nM; with NCI-H446, 250 nM; with A-427, 371 nM; with OVCAR-3 it was 245 nM; in the assay on C-33-A [1], 382 nM; with WiDr, 256 nM.
